Columns and labels:
ABL1 = ABL1 (Homo sapiens, UniProt P00519); assay: SelectScreen kinase profiling, ZLYTE; assay type: biochemical; details: ABL1, 10 µM
ABL1 E255K = ABL1 E255K (Homo sapiens, UniProt P00519, E255K); assay: SelectScreen kinase profiling, ZLYTE; assay type: biochemical
AKT3 (PKB gamma) = AKT3 (PKB gamma) (Homo sapiens, UniProt Q9Y243); assay: SelectScreen kinase profiling, ZLYTE; assay type: biochemical
BMPR2 = BMPR2 (Homo sapiens, UniProt Q13873); assay: SelectScreen kinase profiling, LanthaScreen binding; details: BMPR2, 10 µM
BRAF V599E = BRAF V599E (Homo sapiens, UniProt P15056, V600E); assay: SelectScreen kinase profiling, ZLYTE; assay type: biochemical
BRSK2 = BRSK2 (Homo sapiens, UniProt Q8IWQ3); assay: SelectScreen kinase profiling, LanthaScreen binding; details: BRSK2, 10 µM
CAMK4 (CaMKIV) = CAMK4 (CaMKIV) (Homo sapiens, UniProt Q16566); assay: SelectScreen kinase profiling, ZLYTE; assay type: biochemical
CDC42 BPA (MRCKA) = CDC42 BPA (MRCKA) (Homo sapiens, UniProt Q5VT25); assay: SelectScreen kinase profiling, ZLYTE; assay type: biochemical
CDK5/p35 = CDK5/p35 (Homo sapiens, UniProt Q00535); assay: SelectScreen kinase profiling, ZLYTE; assay type: biochemical; details: CDK5/p35, 10 µM
DDR2 = DDR2 (Homo sapiens, UniProt Q16832); assay: SelectScreen kinase profiling, LanthaScreen binding; details: DDR2, 10 µM
ERN1 = ERN1 (Homo sapiens, UniProt O75460); assay: as above; details: ERN1, 10 µM
HUNK = HUNK (Homo sapiens, UniProt P57058); assay: as above
KIT D816H = KIT D816H (Homo sapiens, UniProt P10721, D816H); assay: as above
KIT T670E = KIT T670E (Homo sapiens, UniProt P10721, T670E); assay: as above
LATS1 = LATS1 (Homo sapiens, UniProt O95835); assay: as above; details: LATS1, 10 µM
LIMK1 = LIMK1 (Homo sapiens, UniProt P53667); assay: as above; details: LIMK1, 10 µM
LRRK2 G2019S FL = LRRK2 G2019S FL (Homo sapiens, UniProt Q5S007, G2019S); assay: SelectScreen kinase profiling, Adapta; assay type: biochemical
LTK (TYK1) = LTK (TYK1) (Homo sapiens, UniProt P29376); assay: SelectScreen kinase profiling, ZLYTE; assay type: biochemical
MAP3K14 (NIK) = MAP3K14 (NIK) (Homo sapiens, UniProt Q99558); assay: SelectScreen kinase profiling, LanthaScreen binding
MAP4K1 (HPK1) = MAP4K1 (HPK1) (Homo sapiens, UniProt Q92918); assay: as above
MAP4K2 (GCK) = MAP4K2 (GCK) (Homo sapiens, UniProt Q12851); assay: SelectScreen kinase profiling, ZLYTE; assay type: biochemical
MAPK11 (p38 beta) = MAPK11 (p38 beta) (Homo sapiens, UniProt Q15759); assay: SelectScreen kinase profiling, ZLYTE; assay type: biochemical
MAPK12 (p38 gamma) = MAPK12 (p38 gamma) (Homo sapiens, UniProt P53778); assay: SelectScreen kinase profiling, ZLYTE; assay type: biochemical
MAPK8 (JNK1) = MAPK8 (JNK1) (Homo sapiens, UniProt P45983); assay: SelectScreen kinase profiling, LanthaScreen binding
MAPKAPK5 (PRAK) = MAPKAPK5 (PRAK) (Homo sapiens, UniProt Q8IW41); assay: SelectScreen kinase profiling, ZLYTE; assay type: biochemical
MET (cMet) = MET (cMet) (Homo sapiens, UniProt P08581); assay: SelectScreen kinase profiling, ZLYTE; assay type: biochemical
NTRK2 (TRKB) = NTRK2 (TRKB) (Homo sapiens, UniProt Q16620); assay: SelectScreen kinase profiling, ZLYTE; assay type: biochemical
PHKG1 = PHKG1 (Homo sapiens, UniProt Q16816); assay: SelectScreen kinase profiling, ZLYTE; assay type: biochemical; details: PHKG1, 10 µM
PI4K2B (PI4K2 beta) = PI4K2B (PI4K2 beta) (Homo sapiens, UniProt Q8TCG2); assay: SelectScreen kinase profiling, Adapta; assay type: biochemical
PIM2 = PIM2 (Homo sapiens, UniProt Q9P1W9); assay: SelectScreen kinase profiling, ZLYTE; assay type: biochemical; details: PIM2, 10 µM
PIP5K1A = PIP5K1A (Homo sapiens, UniProt Q99755); assay: SelectScreen kinase profiling, Adapta; assay type: biochemical
PTK2B (FAK2) = PTK2B (FAK2) (Homo sapiens, UniProt Q14289); assay: SelectScreen kinase profiling, ZLYTE; assay type: biochemical
RET = RET (Homo sapiens, UniProt P07949); assay: SelectScreen kinase profiling, ZLYTE; assay type: biochemical
RET S891A = RET S891A (Homo sapiens, UniProt P07949, S891A); assay: SelectScreen kinase profiling, ZLYTE; assay type: biochemical
RPS6KA2 (RSK3) = RPS6KA2 (RSK3) (Homo sapiens, UniProt Q15349); assay: SelectScreen kinase profiling, ZLYTE; assay type: biochemical
SRPK2 = SRPK2 (Homo sapiens, UniProt P78362); assay: SelectScreen kinase profiling, ZLYTE; assay type: biochemical; details: SRPK2, 10 µM
STK17A (DRAK1) = STK17A (DRAK1) (Homo sapiens, UniProt Q9UEE5); assay: SelectScreen kinase profiling, LanthaScreen binding
STK38 (NDR) = STK38 (NDR) (Homo sapiens, UniProt Q15208); assay: as above
TGFBR1 (ALK5) = TGFBR1 (ALK5) (Homo sapiens, UniProt P36897); assay: as above
Text: Kinase Technology % Inhibition Avg Kinase Technology % Inhibition Avg

MON cells = assay: cells; details: read-out: MTT: IC50 of the proliferation assay

ABL1, sequence (P00519 whole entry): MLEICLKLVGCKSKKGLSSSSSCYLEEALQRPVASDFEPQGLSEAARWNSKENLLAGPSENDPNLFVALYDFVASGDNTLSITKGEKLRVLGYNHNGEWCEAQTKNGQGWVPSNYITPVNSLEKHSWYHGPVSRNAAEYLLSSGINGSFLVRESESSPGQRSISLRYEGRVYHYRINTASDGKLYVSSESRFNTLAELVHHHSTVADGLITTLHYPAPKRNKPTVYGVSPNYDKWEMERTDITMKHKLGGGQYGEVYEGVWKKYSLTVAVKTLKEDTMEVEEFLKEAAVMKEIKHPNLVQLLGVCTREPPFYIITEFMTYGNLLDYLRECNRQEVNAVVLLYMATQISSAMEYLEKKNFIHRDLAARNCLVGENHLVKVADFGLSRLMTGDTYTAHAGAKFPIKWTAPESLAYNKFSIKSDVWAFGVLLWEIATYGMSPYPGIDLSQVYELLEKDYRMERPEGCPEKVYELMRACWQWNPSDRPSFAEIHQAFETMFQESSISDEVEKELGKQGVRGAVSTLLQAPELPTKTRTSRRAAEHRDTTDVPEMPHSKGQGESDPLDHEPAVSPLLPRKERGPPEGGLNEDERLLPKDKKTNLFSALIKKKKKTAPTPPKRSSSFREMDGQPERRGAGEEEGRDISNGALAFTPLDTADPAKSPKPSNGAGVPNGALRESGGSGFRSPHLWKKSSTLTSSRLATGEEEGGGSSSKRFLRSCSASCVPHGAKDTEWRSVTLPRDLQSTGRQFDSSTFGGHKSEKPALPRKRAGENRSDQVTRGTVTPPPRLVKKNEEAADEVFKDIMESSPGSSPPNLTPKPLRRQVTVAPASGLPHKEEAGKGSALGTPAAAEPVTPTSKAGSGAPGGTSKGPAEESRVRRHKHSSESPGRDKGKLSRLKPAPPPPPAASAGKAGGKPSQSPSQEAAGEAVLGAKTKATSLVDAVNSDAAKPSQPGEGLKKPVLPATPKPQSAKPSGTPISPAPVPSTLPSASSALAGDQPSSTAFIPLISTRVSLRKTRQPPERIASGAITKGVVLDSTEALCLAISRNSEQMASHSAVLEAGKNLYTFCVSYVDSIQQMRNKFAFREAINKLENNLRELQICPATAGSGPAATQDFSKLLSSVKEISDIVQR
BRSK2, sequence (Q8IWQ3 whole entry): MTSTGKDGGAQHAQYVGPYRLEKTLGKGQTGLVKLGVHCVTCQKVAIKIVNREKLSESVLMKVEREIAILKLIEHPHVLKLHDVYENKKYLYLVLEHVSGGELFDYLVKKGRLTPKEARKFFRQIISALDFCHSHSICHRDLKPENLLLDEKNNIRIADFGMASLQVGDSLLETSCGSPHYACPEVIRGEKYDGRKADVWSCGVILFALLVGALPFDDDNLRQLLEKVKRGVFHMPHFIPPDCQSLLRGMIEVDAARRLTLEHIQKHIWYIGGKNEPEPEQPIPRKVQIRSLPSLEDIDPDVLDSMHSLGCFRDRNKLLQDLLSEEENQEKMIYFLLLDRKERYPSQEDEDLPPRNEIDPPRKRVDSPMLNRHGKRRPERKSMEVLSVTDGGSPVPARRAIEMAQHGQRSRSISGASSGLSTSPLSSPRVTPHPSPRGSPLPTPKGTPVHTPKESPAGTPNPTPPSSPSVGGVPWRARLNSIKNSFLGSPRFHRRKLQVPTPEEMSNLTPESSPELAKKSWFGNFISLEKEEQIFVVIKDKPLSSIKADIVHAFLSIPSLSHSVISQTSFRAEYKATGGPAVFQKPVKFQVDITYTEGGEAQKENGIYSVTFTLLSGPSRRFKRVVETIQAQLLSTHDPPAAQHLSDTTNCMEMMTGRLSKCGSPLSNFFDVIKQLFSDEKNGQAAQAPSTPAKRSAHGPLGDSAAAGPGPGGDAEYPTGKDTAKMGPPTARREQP
BMPR2, sequence (Q13873 27-1038): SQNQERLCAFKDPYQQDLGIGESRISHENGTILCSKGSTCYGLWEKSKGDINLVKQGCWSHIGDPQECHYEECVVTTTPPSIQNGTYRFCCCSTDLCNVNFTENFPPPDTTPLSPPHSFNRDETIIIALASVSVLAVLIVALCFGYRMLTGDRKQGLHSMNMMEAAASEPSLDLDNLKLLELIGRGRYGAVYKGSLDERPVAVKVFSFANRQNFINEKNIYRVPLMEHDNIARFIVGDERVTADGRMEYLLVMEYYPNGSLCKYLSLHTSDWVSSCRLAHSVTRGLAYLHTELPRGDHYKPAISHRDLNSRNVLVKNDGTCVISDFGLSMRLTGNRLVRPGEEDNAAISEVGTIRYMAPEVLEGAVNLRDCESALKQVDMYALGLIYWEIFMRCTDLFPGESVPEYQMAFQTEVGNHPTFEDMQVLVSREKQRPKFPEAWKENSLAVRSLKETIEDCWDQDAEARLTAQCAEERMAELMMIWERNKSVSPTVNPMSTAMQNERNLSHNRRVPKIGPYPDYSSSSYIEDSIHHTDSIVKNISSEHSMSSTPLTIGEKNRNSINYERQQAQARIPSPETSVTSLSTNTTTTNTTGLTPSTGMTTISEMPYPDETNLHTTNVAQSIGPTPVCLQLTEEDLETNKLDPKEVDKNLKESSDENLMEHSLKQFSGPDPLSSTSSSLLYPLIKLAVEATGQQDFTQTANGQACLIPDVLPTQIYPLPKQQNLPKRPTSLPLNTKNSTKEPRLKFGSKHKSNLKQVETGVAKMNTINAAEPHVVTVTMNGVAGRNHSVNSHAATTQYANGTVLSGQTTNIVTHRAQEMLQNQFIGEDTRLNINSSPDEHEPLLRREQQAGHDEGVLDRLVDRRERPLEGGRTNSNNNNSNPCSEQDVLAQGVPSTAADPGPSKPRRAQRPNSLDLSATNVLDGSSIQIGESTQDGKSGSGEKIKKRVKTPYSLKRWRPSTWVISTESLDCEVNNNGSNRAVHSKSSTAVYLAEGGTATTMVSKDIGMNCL
PI4K2B (PI4K2 beta), sequence (Q8TCG2 whole entry): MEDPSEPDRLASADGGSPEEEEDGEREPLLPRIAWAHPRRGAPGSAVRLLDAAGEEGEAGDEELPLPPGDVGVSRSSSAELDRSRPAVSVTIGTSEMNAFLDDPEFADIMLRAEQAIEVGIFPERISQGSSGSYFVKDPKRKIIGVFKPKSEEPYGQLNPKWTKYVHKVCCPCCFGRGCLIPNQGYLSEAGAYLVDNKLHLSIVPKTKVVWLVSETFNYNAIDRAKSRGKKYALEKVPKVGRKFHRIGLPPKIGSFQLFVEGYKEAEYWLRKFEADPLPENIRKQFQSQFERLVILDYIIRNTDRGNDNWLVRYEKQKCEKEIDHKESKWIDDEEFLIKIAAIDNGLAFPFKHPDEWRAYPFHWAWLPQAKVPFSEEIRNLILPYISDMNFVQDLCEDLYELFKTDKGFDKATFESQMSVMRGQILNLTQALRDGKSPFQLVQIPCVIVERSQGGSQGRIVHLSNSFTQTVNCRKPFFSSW
RPS6KA2 (RSK3), sequence (Q15349 whole entry): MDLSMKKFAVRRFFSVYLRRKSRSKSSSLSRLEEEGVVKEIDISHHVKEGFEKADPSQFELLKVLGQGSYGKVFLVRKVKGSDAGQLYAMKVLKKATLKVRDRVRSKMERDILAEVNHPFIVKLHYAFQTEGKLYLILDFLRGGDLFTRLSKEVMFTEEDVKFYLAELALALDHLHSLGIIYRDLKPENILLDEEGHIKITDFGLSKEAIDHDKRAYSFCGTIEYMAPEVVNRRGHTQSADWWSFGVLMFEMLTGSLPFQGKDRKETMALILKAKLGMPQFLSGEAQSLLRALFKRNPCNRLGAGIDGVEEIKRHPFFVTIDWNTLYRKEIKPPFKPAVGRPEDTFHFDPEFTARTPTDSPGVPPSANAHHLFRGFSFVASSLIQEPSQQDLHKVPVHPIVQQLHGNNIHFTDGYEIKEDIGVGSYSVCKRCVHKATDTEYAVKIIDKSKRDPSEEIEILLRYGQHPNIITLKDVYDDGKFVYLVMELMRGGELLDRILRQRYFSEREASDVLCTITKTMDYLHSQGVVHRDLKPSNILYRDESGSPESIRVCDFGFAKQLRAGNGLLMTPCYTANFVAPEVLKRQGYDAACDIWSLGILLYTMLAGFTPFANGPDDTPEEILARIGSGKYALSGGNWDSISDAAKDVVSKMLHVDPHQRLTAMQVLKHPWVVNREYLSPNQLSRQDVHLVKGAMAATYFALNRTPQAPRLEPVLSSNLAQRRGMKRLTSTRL
KIT T670E, sequence (P10721 26-976 T670E): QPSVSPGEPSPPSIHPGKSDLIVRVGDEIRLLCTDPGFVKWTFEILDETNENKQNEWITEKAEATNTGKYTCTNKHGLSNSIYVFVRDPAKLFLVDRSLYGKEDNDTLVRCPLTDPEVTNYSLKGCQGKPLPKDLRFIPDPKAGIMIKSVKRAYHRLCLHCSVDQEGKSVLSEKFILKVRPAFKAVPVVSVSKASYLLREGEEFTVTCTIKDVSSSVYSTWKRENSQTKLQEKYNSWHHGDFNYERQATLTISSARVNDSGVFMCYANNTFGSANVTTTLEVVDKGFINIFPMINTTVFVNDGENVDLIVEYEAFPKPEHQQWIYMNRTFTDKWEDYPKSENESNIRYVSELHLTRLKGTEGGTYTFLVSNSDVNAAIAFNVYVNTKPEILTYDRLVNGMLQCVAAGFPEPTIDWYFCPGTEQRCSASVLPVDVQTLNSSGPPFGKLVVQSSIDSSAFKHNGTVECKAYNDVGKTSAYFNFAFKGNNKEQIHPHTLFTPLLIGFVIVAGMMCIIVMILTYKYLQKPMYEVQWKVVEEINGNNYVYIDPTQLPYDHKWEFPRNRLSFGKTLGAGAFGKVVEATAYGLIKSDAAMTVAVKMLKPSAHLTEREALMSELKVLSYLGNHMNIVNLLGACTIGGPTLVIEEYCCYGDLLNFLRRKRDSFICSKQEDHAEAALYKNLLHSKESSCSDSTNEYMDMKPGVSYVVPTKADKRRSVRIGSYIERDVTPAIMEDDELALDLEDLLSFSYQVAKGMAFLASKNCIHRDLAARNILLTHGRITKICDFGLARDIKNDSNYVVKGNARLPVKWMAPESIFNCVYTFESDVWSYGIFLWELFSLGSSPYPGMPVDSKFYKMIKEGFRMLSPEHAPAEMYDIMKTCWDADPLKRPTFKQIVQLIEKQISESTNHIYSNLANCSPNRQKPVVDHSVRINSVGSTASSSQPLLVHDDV
ABL1 E255K, sequence (P00519 whole entry E255K): as the sequence (P00519 whole entry) above, with E255K counted along it

`O=C(c1ccc(/C=C/c2n[nH]c3ccccc23)cc1)N1CCNCC1` [KW-2449] showed an inhibition at 10 µM (ABL1) of 100%, an inhibition at 10 µM (ABL1 E255K) of 99% and an inhibition at 10 µM (AKT3 (PKB gamma)) of 11%. For the same compound, the inhibition at 10 µM (BMPR2) was 113%, the inhibition at 10 µM (BRAF V599E) was 60% and the inhibition at 10 µM (BRSK2) was 7%. It also gave an inhibition at 10 µM (CAMK4 (CaMKIV)) of 52%, an inhibition at 10 µM (CDC42 BPA (MRCKA)) of 32% and an inhibition at 10 µM (CDK5/p35) of 94%. The inhibition at 10 µM (DDR2) was 53%, the inhibition at 10 µM (ERN1) was 32% and the inhibition at 10 µM (HUNK) was 84%. The inhibition at 10 µM (KIT D816H) was 42%, the inhibition at 10 µM (KIT T670E) was 89% and the inhibition at 10 µM (LATS1) was -17%. For the same compound, the inhibition at 10 µM (LIMK1) was 32%, the inhibition at 10 µM (LRRK2 G2019S FL) was 100% and the inhibition at 10 µM (LTK (TYK1)) was 90%. For the same compound, the inhibition at 10 µM (MAP3K14 (NIK)) was 90%, the inhibition at 10 µM (MAP4K1 (HPK1)) was 76% and the inhibition at 10 µM (MAP4K2 (GCK)) was 101%. The inhibition at 10 µM (MAPK11 (p38 beta)) was 90%, the inhibition at 10 µM (MAPK12 (p38 gamma)) was 23% and the inhibition at 10 µM (MAPK8 (JNK1)) was 81%. For the same compound, the inhibition at 10 µM (MAPKAPK5 (PRAK)) was 87%, the inhibition at 10 µM (MET (cMet)) was 95% and the inhibition at 10 µM (NTRK2 (TRKB)) was 99%. The inhibition at 10 µM (PHKG1) was 100%, the inhibition at 10 µM (PI4K2B (PI4K2 beta)) was -1% and the inhibition at 10 µM (PIM2) was 8%. It also gave an inhibition at 10 µM (PIP5K1A) of 16%, an inhibition at 10 µM (PTK2B (FAK2)) of 96% and an inhibition at 10 µM (RET) of 101%. For the same compound, the inhibition at 10 µM (RET S891A) was 97%, the inhibition at 10 µM (RPS6KA2 (RSK3)) was 96% and the inhibition at 10 µM (SRPK2) was 32%. It also gave an inhibition at 10 µM (STK17A (DRAK1)) of 85%, an inhibition at 10 µM (STK38 (NDR)) of 85% and an inhibition at 10 µM (TGFBR1 (ALK5)) of 85%. For the same compound, the IC50 (MON cells) was 2450 nM.

— PMC6540285, “Evaluation of Protein Kinase Inhibitors with PLK4 Cross-Over Potential in a Pre-Clinical Model of Cancer” (International Journal of Molecular Sciences, 2019)
